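Step 1: Grow cells in 96-well plates. Step 2: Expose to compound for 48 hours at 5 concentrations. Step 3: Interpolate endpoints linearly; if unreached, use highest concentration. GI50: concentration for 50% inhibition of growth.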 Active and inactive are the calls of the source. Rule as the data show it: active = GI50 up to about 1.1 µM and inactive = higher.
Key:
Assay in all cases: NCI tumour cell line growth inhibition, 48 h
TK-10 = system: TK-10
ACHN = system: ACHN
K562 = system: K562
UACC-257 = system: UACC-257
MDA-MB-231 = system: MDA-MB-231
T47D = system: T47D
Hs-578T = system: Hs-578T
SF-539 = system: SF-539
DU-145 = system: DU-145
PC-3 = system: PC-3
SNB-75 = system: SNB-75
SNB-19 = system: SNB-19
MCF7 = system: MCF7
M14 = system: M14
HCC 2998 = system: HCC 2998
NCI-H522 = system: NCI-H522
NCI-H226 = system: NCI-H226
SNB-78 = system: SNB-78
HOP-92 = system: HOP-92
XF498 = system: XF498

Structure (SMILES) | GI50 (TK-10) | GI50 (ACHN) | GI50 (K562) | GI50 (UACC-257) | GI50 (MDA-MB-231) | GI50 (T47D) | GI50 (Hs-578T) | GI50 (SF-539) | GI50 (DU-145) | GI50 (PC-3) | GI50 (SNB-75) | GI50 (SNB-19) | GI50 (MCF7) | GI50 (M14) | GI50 (HCC 2998) | GI50 (NCI-H522) | GI50 (NCI-H226) | GI50 (SNB-78) | GI50 (HOP-92) | GI50 (XF498)
COc1ccc(-c2c(C#N)c(NC(=S)NC(=O)c3ccccc3)nc3c2CCCC3)cc1OC | 45.4 µM (inactive) | 72.3 µM (inactive) | 29.6 µM (inactive) | 46.6 µM (inactive) | 34.7 µM (inactive) | 14.9 µM (inactive) | 33.3 µM (inactive) | 30.2 µM (inactive) | > 100 µM (inactive) | 46.2 µM (inactive) | 22.3 µM (inactive) | 68.2 µM (inactive) | 46.3 µM (inactive) | 75.7 µM (inactive) |  |  |  |  |  | 
CCN(CC)CCN1C(=O)C(=O)N(c2cccc3ccccc23)C1=O | > 10 µM (inactive) | > 10 µM (inactive) | > 10 µM (inactive) |  | > 10 µM (inactive) | > 10 µM (inactive) | 8.65 µM (inactive) | > 10 µM (inactive) | > 10 µM (inactive) | > 10 µM (inactive) | > 10 µM (inactive) | > 10 µM (inactive) | > 10 µM (inactive) | > 10 µM (inactive) | > 10 µM (inactive) | > 10 µM (inactive) | > 10 µM (inactive) |  |  | 
CC1(C)CCc2ccc(OCCC(=O)O)cc2O1 |  | > 100 µM (inactive) | > 100 µM (inactive) |  |  |  |  | > 100 µM (inactive) |  |  | 83.4 µM (inactive) |  |  | > 100 µM (inactive) |  | > 100 µM (inactive) | > 100 µM (inactive) | > 100 µM (inactive) | > 100 µM (inactive) | 
CCOc1cc(C(=O)O)c2c(ccc3ccc(OC)c(OC)c32)c1OC | > 100 µM (inactive) | > 100 µM (inactive) | > 100 µM (inactive) | > 100 µM (inactive) | > 100 µM (inactive) | > 100 µM (inactive) | > 100 µM (inactive) |  | > 100 µM (inactive) | > 100 µM (inactive) | > 100 µM (inactive) | > 100 µM (inactive) | > 100 µM (inactive) | > 100 µM (inactive) | > 100 µM (inactive) | > 100 µM (inactive) | > 100 µM (inactive) |  | > 100 µM (inactive) | 
O=C(OC(=O)n1ccc2ccccc21)n1ccc2ccccc21 |  |  | > 100 µM (inactive) | > 100 µM (inactive) |  |  |  | > 100 µM (inactive) |  |  | 84.1 µM (inactive) | > 100 µM (inactive) | > 100 µM (inactive) |  | > 100 µM (inactive) |  | > 100 µM (inactive) | > 100 µM (inactive) | > 100 µM (inactive) | > 100 µM (inactive)
CN1CCN(Cn2nc(COc3ccc(Cl)cc3)n(/N=C/c3ccc(-c4ccc(Cl)cc4Cl)o3)c2=S)CC1 | 14.5 µM (inactive) | 19.7 µM (inactive) | 15.2 µM (inactive) | 17.6 µM (inactive) | 7 µM (inactive) | 6.64 µM (inactive) | 3.72 µM (inactive) | 26.4 µM (inactive) | 11.9 µM (inactive) | 11.2 µM (inactive) |  |  | 8.32 µM (inactive) |  | 3.18 µM (inactive) | 3.72 µM (inactive) | 19.6 µM (inactive) |  | 8.47 µM (inactive) | 
O=C(NN1C(=O)CS(=O)(=O)C1c1ccc(C(F)(F)F)cc1)c1ccncc1 (stereo not drawn) | > 100 µM (inactive) | > 100 µM (inactive) |  | > 100 µM (inactive) |  |  |  |  |  |  | > 100 µM (inactive) | > 100 µM (inactive) |  | > 100 µM (inactive) | > 100 µM (inactive) | > 100 µM (inactive) | > 100 µM (inactive) | > 100 µM (inactive) | > 100 µM (inactive) | > 100 µM (inactive)
COCCOCOC(C)(C)[C@H](CCO)O[Si](c1ccccc1)(c1ccccc1)C(C)(C)C | 10.9 µM (inactive) | 5.68 µM (inactive) |  | 8.77 µM (inactive) |  |  |  | 14.1 µM (inactive) |  |  | 8.11 µM (inactive) | 13.2 µM (inactive) |  | 9.89 µM (inactive) | 4.68 µM (inactive) | 4.57 µM (inactive) |  | 16.3 µM (inactive) | 10.6 µM (inactive) | 3.18 µM (inactive)
CC1(C)N/C(=C\C=O)C(C)(C)N1O | > 100 µM (inactive) | > 100 µM (inactive) | > 100 µM (inactive) | > 100 µM (inactive) | > 100 µM (inactive) |  | > 100 µM (inactive) | > 100 µM (inactive) | > 100 µM (inactive) | > 100 µM (inactive) |  | > 100 µM (inactive) | > 100 µM (inactive) | > 100 µM (inactive) | > 100 µM (inactive) |  | > 100 µM (inactive) |  | > 100 µM (inactive) | 
CCCCN(CCCC)c1ccc(/N=N/c2ccc(S(=O)(=O)O)cc2)cc1 | 67.8 µM (inactive) | 46.7 µM (inactive) | 26.9 µM (inactive) | 94.4 µM (inactive) | 25.4 µM (inactive) | 25.5 µM (inactive) |  | 16.7 µM (inactive) | 39.2 µM (inactive) | 25.8 µM (inactive) | 11.7 µM (inactive) | 75.9 µM (inactive) | 21.9 µM (inactive) | > 100 µM (inactive) | 24 µM (inactive) |  |  |  | 7 µM (inactive) | 
COc1ccccc1/C=C1\CCC(CCN2CCOCC2)C1=O (stereo not drawn) | 93.1 µM (inactive) | 75.2 µM (inactive) | 41.1 µM (inactive) | > 100 µM (inactive) |  |  |  | > 100 µM (inactive) |  |  | 49 µM (inactive) | > 100 µM (inactive) |  | > 100 µM (inactive) | 66.1 µM (inactive) |  | > 100 µM (inactive) | > 100 µM (inactive) | > 100 µM (inactive) | > 100 µM (inactive)
COc1cc2c(cc1OC)C(Cc1c3ccccc3cc3ccccc13)N(C)CC2 (stereo not drawn) |  |  | 12.5 µM (inactive) | 18.9 µM (inactive) |  |  |  | 19.5 µM (inactive) |  |  | 14.4 µM (inactive) | 22.2 µM (inactive) | 13.7 µM (inactive) |  |  | 24.4 µM (inactive) | 24.1 µM (inactive) | 23.9 µM (inactive) | 11.4 µM (inactive) | 18.4 µM (inactive)
Brc1ccccc1/C=C\C1(c2ccccc2)OCCO1 | 16.6 µM (inactive) | 8.51 µM (inactive) | 1.01 µM (active) | 16.5 µM (inactive) | 9.27 µM (inactive) | 15.2 µM (inactive) | 7.6 µM (inactive) | 10.4 µM (inactive) | 13.7 µM (inactive) | 17.9 µM (inactive) | 15 µM (inactive) | 15 µM (inactive) | 4 µM (inactive) | 11.4 µM (inactive) | 15.7 µM (inactive) | 8.11 µM (inactive) | 18.3 µM (inactive) |  | 23.3 µM (inactive) | 
